Assay results taken from ChEMBL document CHEMBL1201862, “PubChem BioAssay data set” (2004).
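Growth conditions: 96-well plates. Treatment: test compound, 48 hours, 5 concentrations. Analysis: linear interpolation between bracketing concentrations; unreached endpoints set to highest concentration. At the GI50, growth is halved.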 Activity calls are given as the source filed them. No stated cut-off is given here; in the data, active = GI50 up to about 1.1 µM and inactive = higher.

Experiments:
Assay in all cases: NCI-60 cell line screen, 48 h
EKVX = tested on: EKVX
A549 = tested on: A549
OVCAR-4 = tested on: OVCAR-4
MDA-MB-231 = tested on: MDA-MB-231
786-0 = tested on: 786-0
SF-268 = tested on: SF-268
SK-MEL-28 = tested on: SK-MEL-28
ACHN = tested on: ACHN
SK-MEL-5 = tested on: SK-MEL-5
SF-539 = tested on: SF-539
UO-31 = tested on: UO-31
BT-549 = tested on: BT-549
A498 = tested on: A498
TK-10 = tested on: TK-10
T47D = tested on: T47D
HOP-62 = tested on: HOP-62
HL-60 = tested on: HL-60
MDA-N = tested on: MDA-N
SW-620 = tested on: SW-620
COLO 205 = tested on: COLO 205
LOX IMVI = tested on: LOX IMVI
UACC-257 = tested on: UACC-257
K562 = tested on: K562
NCI-H23 = tested on: NCI-H23
DU-145 = tested on: DU-145
U-251 = tested on: U-251
SK-OV-3 = tested on: SK-OV-3
Malme-3M = tested on: Malme-3M
OVCAR-3 = tested on: OVCAR-3
CAKI-1 = tested on: CAKI-1
SK-MEL-2 = tested on: SK-MEL-2
OVCAR-5 = tested on: OVCAR-5
OVCAR-8 = tested on: OVCAR-8
NCI-H522 = tested on: NCI-H522
IGROV-1 = tested on: IGROV-1
HCT-116 = tested on: HCT-116
M14 = tested on: M14
RXF 393 = tested on: RXF 393
SN12C = tested on: SN12C
Hs-578T = tested on: Hs-578T
HOP-92 = tested on: HOP-92
NCI/ADR-RES = tested on: NCI/ADR-RES
NCI-H226 = tested on: NCI-H226
SNB-19 = tested on: SNB-19
HT-29 = tested on: HT-29
MDA-MB-435 = tested on: MDA-MB-435
CCRF-CEM = tested on: CCRF-CEM
SF-295 = tested on: SF-295
UACC-62 = tested on: UACC-62
KM12 = tested on: KM12
MOLT-4 = tested on: MOLT-4
NCI-H460 = tested on: NCI-H460
HCT-15 = tested on: HCT-15
SNB-75 = tested on: SNB-75
PC-3 = tested on: PC-3
MCF7 = tested on: MCF7
HCC 2998 = tested on: HCC 2998

Structure (SMILES): CSc1nc2ccccc2c(=O)n1/N=C1\C(=O)N(CN2CCCCC2)c2ccc(Cl)cc21
- GI50 (EKVX): 14.1 µM (inactive)
- GI50 (A549): 37.2 µM (inactive)
- GI50 (OVCAR-4): 30.2 µM (inactive)
- GI50 (MDA-MB-231): 55.1 µM (inactive)
- GI50 (786-0): 22.3 µM (inactive)
- GI50 (SF-268): 20.1 µM (inactive)
- GI50 (SK-MEL-28): 60.5 µM (inactive)
- GI50 (ACHN): 28.6 µM (inactive)
- GI50 (SK-MEL-5): 27.9 µM (inactive)
- GI50 (SF-539): 37.6 µM (inactive)
- GI50 (UO-31): 45.8 µM (inactive)
- GI50 (BT-549): 15 µM (inactive)
- GI50 (A498): 27.8 µM (inactive)
- GI50 (TK-10): 26.4 µM (inactive)
- GI50 (T47D): 13.3 µM (inactive)
- GI50 (HOP-62): 33.3 µM (inactive)
- GI50 (HL-60): 10.9 µM (inactive)
- GI50 (MDA-N): 21.8 µM (inactive)
- GI50 (SW-620): 12.5 µM (inactive)
- GI50 (COLO 205): 17.9 µM (inactive)
- GI50 (LOX IMVI): 14.2 µM (inactive)
- GI50 (UACC-257): 20.4 µM (inactive)
- GI50 (K562): 5.22 µM (inactive)
- GI50 (NCI-H23): 28.4 µM (inactive)
- GI50 (DU-145): 17.3 µM (inactive)
- GI50 (U-251): 33.3 µM (inactive)
- GI50 (SK-OV-3): 27.4 µM (inactive)
- GI50 (Malme-3M): > 100 µM (inactive)
- GI50 (OVCAR-3): 59.3 µM (inactive)
- GI50 (CAKI-1): 23.3 µM (inactive)
- GI50 (SK-MEL-2): 19.5 µM (inactive)
- GI50 (OVCAR-5): 64.6 µM (inactive)
- GI50 (OVCAR-8): 37.2 µM (inactive)
- GI50 (NCI-H522): 12.2 µM (inactive)
- GI50 (IGROV-1): 13.5 µM (inactive)
- GI50 (HCT-116): 18.5 µM (inactive)
- GI50 (M14): 30.5 µM (inactive)
- GI50 (RXF 393): 17.5 µM (inactive)
- GI50 (SN12C): 28.7 µM (inactive)
- GI50 (Hs-578T): 37.7 µM (inactive)
- GI50 (HOP-92): 32.9 µM (inactive)
- GI50 (NCI/ADR-RES): 34.8 µM (inactive)
- GI50 (NCI-H226): 75.9 µM (inactive)
- GI50 (SNB-19): 61.5 µM (inactive)
- GI50 (HT-29): 36.7 µM (inactive)
- GI50 (MDA-MB-435): 26.6 µM (inactive)
- GI50 (CCRF-CEM): 20.6 µM (inactive)
- GI50 (SF-295): 37 µM (inactive)
- GI50 (UACC-62): 8.89 µM (inactive)
- GI50 (KM12): 25.1 µM (inactive)
- GI50 (MOLT-4): 12.4 µM (inactive)
- GI50 (NCI-H460): 22.7 µM (inactive)
- GI50 (HCT-15): 13.3 µM
- GI50 (SNB-75): 19.7 µM (inactive)
- GI50 (PC-3): 29.4 µM (inactive)
- GI50 (MCF7): 18.7 µM (inactive)

Structure (SMILES): CC[n+]1c(-c2ccccc2)c2cc(N)ccc2c2ccc(N)cc21 [HOMIDIUM BROMIDE]
- GI50 (A549): 11.9 µM (inactive)
- GI50 (OVCAR-4): 4.44 µM (inactive)
- GI50 (MDA-MB-231): 8.55 µM (inactive)
- GI50 (SK-MEL-28): 2.05 µM (inactive)
- GI50 (ACHN): 19 µM (inactive)
- GI50 (SK-MEL-5): 1.2 µM (inactive)
- GI50 (SF-539): 1.53 µM (inactive)
- GI50 (BT-549): 1.14 µM (inactive)
- GI50 (TK-10): 8.36 µM (inactive)
- GI50 (T47D): 1.93 µM (inactive)
- GI50 (HL-60): 5.97 µM (inactive)
- GI50 (MDA-N): 4.2 µM (inactive)
- GI50 (SW-620): 3.67 µM (inactive)
- GI50 (COLO 205): 1.68 µM (inactive)
- GI50 (UACC-257): 2.01 µM (inactive)
- GI50 (K562): 2.96 µM (inactive)
- GI50 (NCI-H23): 1.53 µM (inactive)
- GI50 (DU-145): 7.57 µM (inactive)
- GI50 (U-251): 4.38 µM (inactive)
- GI50 (SK-OV-3): 3.52 µM (inactive)
- GI50 (OVCAR-3): 3.07 µM (inactive)
- GI50 (CAKI-1): 16.9 µM (inactive)
- GI50 (SK-MEL-2): 2.08 µM (inactive)
- GI50 (OVCAR-5): 15.4 µM (inactive)
- GI50 (HCT-116): 3.62 µM (inactive)
- GI50 (M14): 13.6 µM (inactive)
- GI50 (RXF 393): 5.68 µM (inactive)
- GI50 (SN12C): 3.24 µM (inactive)
- GI50 (Hs-578T): < 0.01 µM (active)
- GI50 (HOP-92): 2.24 µM (inactive)
- GI50 (HCC 2998): 4.79 µM (inactive)
- GI50 (NCI/ADR-RES): > 100 µM (inactive)
- GI50 (HT-29): 3.67 µM (inactive)
- GI50 (MDA-MB-435): 3.5 µM (inactive)
- GI50 (SF-295): 2.82 µM (inactive)
- GI50 (KM12): 2.49 µM (inactive)
- GI50 (MOLT-4): 2.36 µM (inactive)
- GI50 (NCI-H460): 5.06 µM (inactive)
- GI50 (HCT-15): 55.5 µM
- GI50 (SNB-75): 0.0372 µM (active)
- GI50 (PC-3): 5.06 µM (inactive)
- GI50 (MCF7): 2 µM (inactive)
